Experimental findings from ChEMBL document CHEMBL1201862, “PubChem BioAssay data set” (2004) are described below.

Test [1] deals with T1, Sentrin-specific protease 7 (Homo sapiens, UniProt Q9BQF6).
T1 sequence (Q9BQF6 whole entry): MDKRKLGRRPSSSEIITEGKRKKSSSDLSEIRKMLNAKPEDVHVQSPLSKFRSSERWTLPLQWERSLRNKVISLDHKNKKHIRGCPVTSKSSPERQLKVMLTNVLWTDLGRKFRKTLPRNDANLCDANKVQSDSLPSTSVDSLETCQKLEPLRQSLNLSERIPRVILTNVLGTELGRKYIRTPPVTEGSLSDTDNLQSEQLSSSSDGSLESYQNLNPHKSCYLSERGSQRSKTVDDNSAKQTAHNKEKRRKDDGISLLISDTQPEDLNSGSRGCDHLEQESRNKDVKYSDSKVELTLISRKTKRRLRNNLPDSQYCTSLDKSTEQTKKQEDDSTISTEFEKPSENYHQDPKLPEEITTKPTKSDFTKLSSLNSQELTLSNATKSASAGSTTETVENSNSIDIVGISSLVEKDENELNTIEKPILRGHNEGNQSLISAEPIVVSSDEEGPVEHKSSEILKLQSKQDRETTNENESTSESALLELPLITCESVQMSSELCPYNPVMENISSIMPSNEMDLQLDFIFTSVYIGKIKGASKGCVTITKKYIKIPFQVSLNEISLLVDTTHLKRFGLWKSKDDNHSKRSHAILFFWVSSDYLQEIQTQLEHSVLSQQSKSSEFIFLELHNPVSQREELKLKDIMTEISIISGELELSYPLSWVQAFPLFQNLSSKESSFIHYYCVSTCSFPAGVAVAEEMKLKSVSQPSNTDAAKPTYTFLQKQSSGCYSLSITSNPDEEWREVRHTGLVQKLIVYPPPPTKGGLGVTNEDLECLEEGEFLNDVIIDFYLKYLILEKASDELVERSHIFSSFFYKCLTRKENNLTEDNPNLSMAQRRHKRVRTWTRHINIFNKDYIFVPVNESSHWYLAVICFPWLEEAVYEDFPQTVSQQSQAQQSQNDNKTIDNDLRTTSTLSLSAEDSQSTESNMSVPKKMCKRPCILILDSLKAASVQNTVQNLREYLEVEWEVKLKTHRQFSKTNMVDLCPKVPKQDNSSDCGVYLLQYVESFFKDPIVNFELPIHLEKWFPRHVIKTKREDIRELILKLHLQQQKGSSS
It counts as functional.

Test [2] has as its target Glutathione-S-transferase (Schistosoma japonicum, UniProt Q26513). Briefly: biotin-GST/anti-GST TR-FRET signal inhibitors, dose response, artefact control for Vif-APOBEC3G degradation inhibitor project, biochemical (AID 1117362). It counts as functional.
A short description of test [3]: THP-1 cell cytotoxicity, dose response, cytotoxicity control for Vif-APOBEC3G degradation inhibitor project, THP-1 cells (AID 1117359). The following applies: Human immunodeficiency virus 1, THP-1. It is filed as functional.
A further test concerns the target Mu-type opioid receptor (Homo sapiens, UniProt P35372). Kind of test: Counterscreen for agonists of heterodimerization of the mu 1 (OPRM1) and delta 1 (OPRD1) opioid receptors: Luminescence-based cell-based high throughput dose response assay to identify agonists of OPRM1 homodimerization. It counts as functional. On the technique in general: A counterscreen serves to expose hits that act by an unwanted route or on another target.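 Further: U2OS cells expressing OPRM1 and beta-arrestin as split beta-galactosidase partners.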

Test [4] in a line: THP-1 cell cytotoxicity, dose response, cytotoxicity control for non-replicating M. tuberculosis project (AID 489025). It counts as functional.
Test [5] in a line: cytotoxicity in HEK-293T cells, dose response, cytotoxicity control for TCR NF-kB inhibitor project, luminescence, T-cell screen hits (AID 489026).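 Further: cells exposed to compound about 14 hours before the viability readout.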 It is filed as functional, cell-based.

The source made the active and inactive calls. Bounds are passed on as bounds.

Glutathione-S-transferase, sequence (Q26513 whole entry): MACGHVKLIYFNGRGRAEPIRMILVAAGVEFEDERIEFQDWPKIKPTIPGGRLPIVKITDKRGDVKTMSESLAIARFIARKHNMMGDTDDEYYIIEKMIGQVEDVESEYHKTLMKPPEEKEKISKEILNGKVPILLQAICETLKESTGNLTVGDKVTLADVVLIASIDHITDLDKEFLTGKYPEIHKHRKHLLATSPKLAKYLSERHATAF
Mu-type opioid receptor, sequence (P35372 whole entry): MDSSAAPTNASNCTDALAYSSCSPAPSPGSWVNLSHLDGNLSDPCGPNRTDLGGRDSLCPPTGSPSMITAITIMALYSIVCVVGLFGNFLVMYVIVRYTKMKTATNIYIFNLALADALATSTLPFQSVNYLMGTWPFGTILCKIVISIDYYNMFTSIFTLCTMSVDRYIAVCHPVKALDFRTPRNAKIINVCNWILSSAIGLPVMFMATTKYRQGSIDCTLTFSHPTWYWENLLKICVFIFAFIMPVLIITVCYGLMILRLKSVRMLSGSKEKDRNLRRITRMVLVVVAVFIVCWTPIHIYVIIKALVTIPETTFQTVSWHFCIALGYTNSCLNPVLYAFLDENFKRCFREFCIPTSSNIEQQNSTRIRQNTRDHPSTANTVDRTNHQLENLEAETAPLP

By IC50 is commonly meant the point on the concentration scale where inhibition reaches its midpoint. In the case of `Oc1nc(Nc2ccccc2Cl)cc2ccccc12`, in test [1], the IC50 is 4.7 µM (active).
One may read the CC50 as the concentration that lowers cell viability or growth by half. In general, EC50 refers to the concentration giving half of the maximal effect. As for `O=C1C=C(c2c(O)ccc3ccccc23)c2ccccc2C1=O`, in test [2], the IC50 was > 100 µM (active). Further, the CC50 in test [3] was 7.1 µM (active). Moreover, the EC50 at Mu-type opioid receptor is > 92.4 µM (inactive).
Take `Cc1nc2c(=O)n(C)c(=O)nc-2n(C)n1`: the CC50 in test [4] was 2.73 µM (active). Moreover, the IC50 in test [5] is 9.41 µM (active).
